Test results published in PubChem BioAssay AID2060909 (Molecular Pharmacology Branch, DTP, NCI, 2025).
Several values for one entry are separate records, joined by “and”; a condition that tells them apart may be missing. Identical values can stand only once.

Tested on: 362531-283-R-J2-PDC complex spheroid viability
Assay: Anticancer human tumor 362531-283-R-J2-PDC patient-derived colon adenocarcinoma cell line growth inhibition [RAS]
Settings: for viability, T/C: stronger effect = lower value
Description: RAS pathway inhibitors in Combinations in Complex Spheroids
A high-throughput screen of multi-cell type tumor spheroids was designed to identify active combinations of RAS pathway inhibitors and targeted small molecules. Complex spheroids include a stromal component modeled by human endothelial cells (HUVEC) and fibroblasts modeled by human mesenchymal stem cells (MSCs). The concentration ranges selected for each drug and investigational agent were based upon clinically achievable concentrations if the clinical Cmax of the agent was known.
Compounds. The drugs and investigational agents: abemaciclib (NSC768073), cobimetinib (NSC768068), divarasib (GDC6063, NSC841802), docetaxel (NSC628503), GDC-1971 (RLY-1971, NSC841576), gemcitabine (NSC613327), inavolisib (NSC800729), ipatasertib (NSC767898), KB-0742 (NSC834161), MRTX-1133 (NSC836407), osimertinib (NSC779217), RMC-4630 (NSC839698), RMC-6236 (NSC851965), RMC-6291 (NSC852671), Ro-3306 (NSC812927), sapanisertib (NSC764658), SN-38 (NSC673596), staurosporine (NSC755774), SY5609 (NSC837396), and tovorafenib (DAY101, NSC766906), were obtained from the National Cancer Institute (NCI) Developmental Therapeutics Program Chemical Repository. The FDA-approved anticancer drug set is available from the NCI Developmental Therapeutics Program. […] The stock solutions were prepared in dimethyl sulfoxide (DMSO, Sigma-Aldrich, St. Louis, MO, cat. D2650) at 800-fold the tested concentration and stored at -70 degrees C prior to their use. All drugs and investigational agents were tested over a range starting from a high concentration at or near the clinical Cmax and decreasing in half-log increments. If the clinical Cmax for an agent had not been determined, the highest concentration tested was 10 microM.
Cell Culture. All cells were maintained in an incubator at 37 degrees C and 5% CO2 with 95% humidity. The PDC lines were cultured according to standard operating procedures established by the NCI PDMR. All PDCs were thawed and cultured in Matrigel-coated flasks prepared with a working solution of 1X Ham's F-12 nutrient mix, without supplementation (Invitrogen, Waltham, MA, cat. 11765054), 100 U/mL penicillin-streptomycin (Invitrogen, cat. 15140122), and 2.5% Matrigel (Corning Inc., Corning, NY, cat. 354248) for the first three passages. The 362531-283-R-J2-PDC and 782815-120-R-J1-PDC lines were cultured in 6C/Colon 1B media, which includes advanced DMEM/F-12 (Thermo Fisher Scientific, cat. 12634028), 10 mM HEPES (Thermo Fisher Scientific, cat. 15630080), 1X GlutaMAX supplement (Thermo Fisher Scientific, cat. 35050061), 0.1 mg/mL primocin (InvivoGen, San Diego, CA, cat. ant-pm-2), 10% defined fetal bovine serum, heat inactivated (HyClone Laboratories Inc., Logan, UT, cat. SH30070.03HI), 50% L-WRN conditioned media (ATCC, cat. CRL-3276), 1.25 mM N-Acetyl-L-cysteine (Sigma-Aldrich, cat. A9165), 10 mM nicotinamide (Sigma-Aldrich, cat. N0636), 1X B-27 supplement (Thermo Fisher Scientific, cat. 17504044), 1X N-2 supplement (Thermo Fisher Scientific, cat. 17502048), 50 ng/mL human EGF (Thermo Fisher Scientific, cat. PHG0311), and 10 microM Y-27632 dihydrochloride (Tocris Bioscience, cat. 1254). The K12877-001-R-J1-PDC line was cultured in 6I media, which includes all 6C/Colon 1B media plus 10 ng/mL human FGF-10 (PeproTech, cat. 100-26), 1 ng/mL human FGF-2 (PeproTech, cat. 100-18B), 1 µM prostaglandin E2 (Tocris Bioscience, cat. 2296), […] hydrocortisone (Sigma-Aldrich, cat. H4001), and […] bovine insulin (Sigma-Aldrich, cat. I6634). The K86415-001-R-J1-PDC line was cultured in 6D media, which includes all 6C/Colon 1B media components minus the L-WRN conditioned media. The 485176-168-R4-J1-PDC was cultured in PANC media, which includes all 6C/Colon 1B media plus 100 ng/mL human FGF-10 (PeproTech, cat. 100-26), 500 nM SB-431542 (Selleckchem, cat. S1067), and 10 nM gastrin (Tocris Bioscience, cat. 3006). […]

[1] = compound alone, run of 07/15/2024
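Further: spheroids exposed to the agents for 7 days before readout.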
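Wherever viability, T/C is given: luminescence viability as percent of DMSO vehicle control wells.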

Compound: C=CC(=O)N1CCN(c2nc(OCC3CCCN3C)nc3c(F)c(-c4nc(N)cc(C)c4C(F)(F)F)c(Cl)cc23)C(C)C1 (stereo not given)
- viability, T/C (compound 0.00316 µM): 104% [middle of 12 runs]
- viability, T/C (compound 0.01 µM): 108% [middle of 12 runs]
- viability, T/C (compound 0.0316 µM): 102% [middle of 12 runs]
- viability, T/C (compound 0.1 µM): 102% [middle of 12 runs]
- viability, T/C (compound 0.316 µM): 102% [middle of 12 runs]
- IC50 [1]: > 1000 nM
- IC50 (curve of compound): > 1000 nM

Compound: O=C(c1ccc(F)c(F)c1Nc1ccc(I)cc1F)N1CC(O)([C@@H]2CCCCN2)C1 + CCn1c(-c2cc(N3CCN(C)CC3)cnc2C(C)OC)c2c3cc(ccc31)-c1csc(n1)CC(NC(=O)C1CC1C)C(=O)N1CCCC(N1)C(=O)OCC(C)(C)C2
- IC50 (curve of first compound, second compound 0.000949 µM): 523 nM
- IC50 (curve of first compound, second compound 0.003 µM): 514 nM
- IC50 (curve of first compound, second compound 0.00949 µM): 454 nM
- IC50 (curve of first compound, second compound 0.03 µM): 447 nM
- IC50 (curve of first compound, second compound 0.0949 µM): 72 nM
- IC50 (curve of first compound, second compound 0.3 µM): < 3.16 nM
- viability, T/C (second compound 0.000949 µM, first compound 0.00316 µM): 93%
- viability, T/C (second compound 0.000949 µM, first compound 0.01 µM): 105%
- viability, T/C (second compound 0.000949 µM, first compound 0.0316 µM): 85.6%
- viability, T/C (second compound 0.000949 µM, first compound 0.1 µM): 80.9%
- viability, T/C (second compound 0.000949 µM, first compound 0.316 µM): 74.8%
- viability, T/C (second compound 0.000949 µM, first compound 1 µM): 23.1%
- viability, T/C (second compound 0.003 µM, first compound 0.00316 µM): 87.8%
- viability, T/C (second compound 0.003 µM, first compound 0.01 µM): 101%
- viability, T/C (second compound 0.003 µM, first compound 0.0316 µM): 92%
- viability, T/C (second compound 0.003 µM, first compound 0.1 µM): 76.4%
- viability, T/C (second compound 0.003 µM, first compound 0.316 µM): 76%
- viability, T/C (second compound 0.003 µM, first compound 1 µM): 20.3%
- viability, T/C (second compound 0.00949 µM, first compound 0.00316 µM): 98.4%
- viability, T/C (second compound 0.00949 µM, first compound 0.01 µM): 94.7%
- viability, T/C (second compound 0.00949 µM, first compound 0.0316 µM): 81.4%
- viability, T/C (second compound 0.00949 µM, first compound 0.1 µM): 82.6%
- viability, T/C (second compound 0.00949 µM, first compound 0.316 µM): 73.6%
- viability, T/C (second compound 0.00949 µM, first compound 1 µM): 4.71%
- viability, T/C (second compound 0.03 µM, first compound 0.00316 µM): 87.4%
- viability, T/C (second compound 0.03 µM, first compound 0.01 µM): 75.7%
- viability, T/C (second compound 0.03 µM, first compound 0.0316 µM): 82%
- viability, T/C (second compound 0.03 µM, first compound 0.1 µM): 75.4%
- viability, T/C (second compound 0.03 µM, first compound 0.316 µM): 69.1%
- viability, T/C (second compound 0.03 µM, first compound 1 µM): 5.79%
- viability, T/C (second compound 0.0949 µM, first compound 0.00316 µM): 72.8%
- viability, T/C (second compound 0.0949 µM, first compound 0.01 µM): 96.2%
- viability, T/C (second compound 0.0949 µM, first compound 0.0316 µM): 58.1%
- viability, T/C (second compound 0.0949 µM, first compound 0.1 µM): 49.3%
- viability, T/C (second compound 0.0949 µM, first compound 0.316 µM): 3.89%
- viability, T/C (second compound 0.0949 µM, first compound 1 µM): 3.06%
- viability, T/C (second compound 0.3 µM, first compound 0.00316 µM): 28.9%
- viability, T/C (second compound 0.3 µM, first compound 0.01 µM): 28.4%
- viability, T/C (second compound 0.3 µM, first compound 0.0316 µM): 15.1%
- viability, T/C (second compound 0.3 µM, first compound 0.1 µM): 3.3%
- viability, T/C (second compound 0.3 µM, first compound 0.316 µM): 3.48%
- viability, T/C (second compound 0.3 µM, first compound 1 µM): 3.15%

Compound: C#Cc1c(F)ccc2cc(O)cc(-c3ncc4c(N5CC6CCC(C5)N6)nc(OCC56CCCN5CC(F)C6)nc4c3F)c12 (stereo not given)
- viability, T/C (compound 0.0316 µM): 99.9% [middle of 8 runs]
- viability, T/C (compound 0.1 µM): 101% [middle of 8 runs]
- viability, T/C (compound 0.316 µM): 94.8% [middle of 8 runs]
- viability, T/C (compound 1 µM): 79.1% [middle of 8 runs]
- viability, T/C (compound 10 µM): 54.6% [middle of 8 runs]
- IC50 [1]: 6730 nM and > 10000 nM and 9190 nM

Compound: CCN1CCN(Cc2ccc(Nc3ncc(F)c(-c4cc(F)c5nc(C)n(C(C)C)c5c4)n3)nc2)CC1
- viability, T/C (compound 0.00316 µM): 100% (2×) and 99.6% and 106%
- viability, T/C (compound 0.01 µM): 95.9% [middle of 4 runs]
- viability, T/C (compound 0.1 µM): 79.9% [middle of 4 runs]
- viability, T/C (compound 0.316 µM): 65.4% [middle of 4 runs]
- IC50 (curve of compound): > 1000 nM
